{
  "source": "patent US20250282816A1",
  "about": "“THIOSTREPTON COMPOSITIONS AND PREPARATION THEREOF” (RS Oncology, LLC, priority 2021, published 2025)",
  "key": {"[1]": {"experiment": "Antibiotics-Microbial assay, USP <81>", "type": "cell-based", "settings": "final product of the 2 kg scale cGMP process (GMP DS Lot 1); specification ≥900 IU/mg", "text": "Materials and Methods. […] Identification by IR spectrum, USP <197K> • 2. Antibiotics-Microbial assay, USP <81>"}, "[2]": {"system": "ovarian cancer cell line SKOV3", "experiment": "cell viability assay, crystal violet cell staining", "type": "cell-based", "settings": "48 hours treatment", "method": "Commercial thiostrepton (TS) starting material (TS Non-GMP) and ultrapure TS (TS GMP) were diluted to 10 mM in sterile DMSO. Lots of TS were evaluated in a cell viability assay using the ovarian cancer cell line SKOV3 purchased from ATCC. Two replicate plates containing technical duplicates were set up for screening. Cells were plated at a density of 2,500 cells/well in 96-well plates and allowed to adhere for 24 hours prior to treatment. A starting concentration of 20 μM for each TS solution was serial diluted 1:1 covering a concentration range of 20 μM to 20 nM. Cells were incubated with treatments for 48 hours prior to fixation with 3% formaldehyde and crystal violet cell staining to determine residual cells remaining (100%=no cell death, 0%=complete cell death). FIG. 4. EC50 values (the concentration required to kill 50% of cells) were determined using a variable slope least square fit non-linear regression. FIG. 5."}},
  "data": [
    {"smiles": "C=C(NC(=O)C(=C)NC(=O)c1csc(C2=N[C@@H]3c4csc(n4)[C@H]4NC(=O)c5csc(n5)[C@H]([C@](C)(O)[C@@H](C)O)NC(=O)[C@H]5CSC(=N5)/C(=C/C)NC(=O)[C@H]([C@@H](C)O)NC(=O)c5csc(n5)[C@]3(CC2)NC(=O)[C@H](C)NC(=O)C(=C)NC(=O)[C@H](C)NC(=O)[C@H]([C@@H](C)CC)N[C@@H]2C=Cc3c([C@H](C)O)cc(nc3[C@H]2O)C(=O)O[C@@H]4C)n1)C(N)=O", "note": "[ultrapure TS, thiostrepton]", "values": [
      {"measurement": "Antibiotics-Microbial assay", "setting": "[1]", "value": 988, "unit": "IU/mg"},
      {"measurement": "biological activity as measured by % cell death of cancer cells, compared with commercial TS", "setting": "[2]; 20 μM to 20 nM, N=4 replicates (FIG. 4)", "value": "better biological activity"},
      {"measurement": "biological activity as measured by EC50 (the concentration required to kill 50% of cells), compared with commercial TS", "setting": "[2]; variable slope non-linear regression, N=4 replicates, p<0.0001 (FIG. 5)", "value": "better biological activity"}
    ]}
  ]
}
